# Columns and labels:
# [1] = Water retention property and adherability with respect to healthy hair; set-up: species or system human; conditions: for Post-test moisture rate / Compound adhesion rate: healthy hair immersed 60 min in 80 wt % aqueous solution; for Post-test moisture rate: after 24 hours at 40° C., pre-test 7.6%; for Post-test moisture rate / Rate of reduction in moisture: 35 to 40% RH; for Rate of reduction in moisture: healthy hair, 80 wt % aqueous solution, 24 hours at 40° C.; for Adherability to the healthy hair: compared to the compounds of comparative examples B1 to B8
# Description: In the following evaluations, a human black hair produced by Beaulax Co., Ltd was used as a healthy hair. A damaged hair was prepared by repeatedly having the healthy hair permed and bleached three times.
# An 80 wt % aqueous solution of each of the compounds B1 to B26 (content in terms of anhydride in the cases of the compounds B1 to B23) was prepared, followed by using a Karl Fischer moisture meter (KF-200 by Mitsubishi Chemical Analytech Co., Ltd.) to confirm that a moisture rate was 20.0 wt %. As a healthy hair, there was used a chemically untreated healthy hair (human black hair by Beaulax Co., Ltd). The moisture rate (pre-test moisture rate A) of the hair was measured by an infrared moisture meter (by Kett Electric Laboratory).
# After immersion, the hair was taken out, and KimWipes were then used to wipe off the compound until a change in weight was no longer observed, followed by measuring the weight of the hair (post-test hair weight B). The hair from which the compound had been wiped off was then placed into a thermo-hygrostat set to 40° C. and 35 to 40% RH. A moisture rate after 24 hours (post-test moisture rate B) was then measured, followed by calculating a rate of reduction in moisture with the following formula. Likewise, instead of the 80 wt % aqueous solution, evaluation was also performed in a similar manner using only an ion-exchange water (comparative example B4).
# Further, an adhesion rate of the compound adhering to the hair was calculated with the following formula. […]
# [2] = Water retention property test 1; assay type: physicochemical; conditions: 80 wt % aqueous solution
# Description: A moisture rate after 24 hours was again measured (post-test moisture rate: B), followed by using the formula below to calculate a rate of reduction in moisture so as to evaluate the water retention property. • Pre-test moisture rate: A (%) • Post-test moisture rate: B (%)
# [3] = Water confinement property test (barrier property); assay type: physicochemical; conditions: 24 hours
# Description: Next, 20.0 g of an ion-exchange water was put into a 40 mL pierce vial bottle (by AS ONE Corporation.), followed by removing an inner lid (rubber plug) of the pierce vial bottle, placing on the pierce vial bottle the filter paper to which each sample had been applied, and then plugging the bottle with an outer lid.
# Further, Wm1, Wm2, Sm1 and Sm2 in the formula below respectively represent the following numerical values.
# Wm1: Weight of ion-exchange water in vial before storage (using filter paper to which only ion-exchange water had been applied)
# Wm2: Weight of ion-exchange water in vial after 24 hours (using filter paper to which only ion-exchange water had been applied)
# Sm1: Weight of ion-exchange water in vial before storage (using filter paper to which sample had been applied)
# Sm2: Weight of ion-exchange water in vial after 24 hours (using filter paper to which sample had been applied)
# [4] = Sensory evaluation on healthy hair after using shampoo agent containing organic ammonium salt; set-up: species or system human; conditions: shampoo agent containing 3.0% by mass of the compound; treated 10 times
# Description: Next, the mixture was cooled to a temperature of 30° C. or lower, and a purified water of an evaporated amount was then added thereto so that the whole hair treatment composition would be 100% by mass, followed by uniformly mixing them so as to obtain a hair treatment composition(s). The pH level of the hair treatment composition was adjusted to pH 6.0 by adding a citric acid or sodium hydroxide.
# About 5 g of the healthy hair was taken and dipped into 350 ml of a seven-time dilute aqueous solution of each of the abovementioned hair treatment compositions (shampoo agents) at 35 to 40° C. so as to be washed. The healthy hair was then subjected to a rinsing treatment five times using 500 ml of a warm water of 35 to 40° C., followed by drying the same at 80° C., and then performing air drying at 25° C. Such series of treatment involving hair washing, rinsing and drying was repeated 10 times to then evaluate a cohesiveness of the hair, a moist feeling of the hair, a gloss of the hair, a surface smoothness of the hair and a non-stickiness on the surface of the hair, after performing air drying.
# [5] = Sensory evaluation on healthy hair after using organic ammonium salt; set-up: species or system human; conditions: compared to the compounds of the comparative examples
# Description: (§1) Here, an 80 wt % aqueous solution(s) of each of the compounds B11, B12, B23, B26 and B27 (content in terms of anhydride in the cases of the compounds B11, B12 and B23) were prepared and used as samples. Next, one minute was spent in evenly applying 10.0 g of each sample to a bundle of the healthy hairs weighing about 10 g, using a brush; the bundle of the healthy hairs was then left for 5 min. After leaving it for 5 min, the bundle of the healthy hairs was rinsed with a hot water of 40° C. for 30 sec, and evaluated was a finger-combing capability at the time of performing washing. The hair bundle that had been rinsed was then dried with a towel and further subjected to air drying for a day, followed by evaluating items such as flexibility, finger-combing capability, texture, elasticity/resilience (feeling by bare hands), volume increase (visual evaluation), cohesiveness, moist feeling, surface smoothness, non-stickiness (feeling by bare hands) and gloss (visual evaluation), from the perspective of superiority or inferiority to a test hair bundle(s) uncoated with the sample.
# [6] = Sensory evaluation on damaged hair after using organic ammonium salt; set-up: species or system human; conditions: compared to the compounds of the comparative examples
# Description: as §1, with “damaged” for “healthy”, “as” for “as flexibility, finger-combing capability, texture,”, “hands),” for “hands), volume increase (visual evaluation),”, “cohesiveness,” for “cohesiveness, moist feeling,”, “smoothness” for “smoothness, non-stickiness (feeling by bare hands)”, “non-waviness,” for “gloss (visual evaluation),”
# [7] = Permeability to skin (horny layer tape stripping method); assay type: in vivo; conditions: extraction liquid, an hour after application to the arm, HPLC
# Description: Skin permeability was evaluated by a horny layer tape stripping method. […] A sample was applied to the arm and then left thereon for an hour before performing tape stripping on the horn by eight layers. An adhered substance on this tape was then extracted with an ion-exchange water over the course of 10 min, followed by filtrating an extraction liquid thus obtained with a 0.2 μm filter, and then quantifying, via HPLC, the amount of each of the compounds C20, C64 and C97 in each extraction liquid filtrated.
# [8] = Stability of ascorbic acid-based compound (coloration); assay type: physicochemical; set-up: key to Appearance (Visual evaluation) Immediately after preparatiom / Appearance (Visual evaluation) After 7 days 50° C. / Appearance (Visual evaluation) After 7 days Room temperature: ⊚: Colorless and transparent; ∘: Light yellow; Δ: Yellow; x: Brown to black; conditions: 33 wt % aqueous solution
# Description: With regard to a 33 wt/% aqueous solution of each of the compounds C46, C49 and C98 to C100 and water, a stability in an aqueous solution condition was visually evaluated. An evaluation method was such that there was prepared a 33 wt % aqueous solution of each of the compounds C46, C49 and C98 to C100, the aqueous solution was then left to stand still at room temperature or in a thermostatic bath of 50° C. for seven days; coloration before and after the still standing was visually confirmed. The evaluation criteria were as follows. • ⊚: Colorless and transparent • ∘: Light yellow • Δ: Yellow • x: Brown to black
# [9] = unsealed, 24 hours at 40° C. and 25% RH
smiles,measurement,setting,value
"CCCC[N+](CCCC)(CCCC)CCCC.[Br-] [Compound A54, tetrabutylammonium bromide, reference compound]",Post-test moisture rate,[1],4.0%
same,Compound adhesion rate,[1]; listed as B24,1.0%
same,Rate of reduction in moisture,[1],47%
same,Pre-test moisture rate,[2]; before the test (Karl Fischer),20.0%
same,Post-test moisture rate,[2]; [9],15.3%
same,Rate of reduction in moisture,[2]; [9],23.6%
same,Water evaporation inhibition rate,"[3]; 80 wt % aqueous solution, 0.01 mL/cm^2 on filter paper, 40° C. and 25% RH",29.5%
CC(N)(CO)CO.O=C1O[C@H]([C@@H](O)CO)C(O)=C1O [Compound B7],Compound adhesion rate,[1],2.4%
same,Post-test moisture rate,[1],6.0%
same,Rate of reduction in moisture,[1],21%
same,"Sensory evaluation of healthy hair after shampoo agent (cohesiveness, moist feeling, gloss, smoothness, non-stickiness)",[4],favorable
"CCCCCCCC/C=C\CCCCCCCC(=O)OCC(N)(CO)CO [Compound B30, 2-amino-2-hydroxymethyl-1,3-propanediol oleate]",Adherability to the healthy hair,[1],higher adherability
same,"Sensory evaluation on healthy hair (flexibility, finger-combing, texture, elasticity/resilience, volume, cohesiveness, moist feeling, smoothness, non-stickiness, gloss)",[5],superior
same,"Sensory evaluation on damaged hair (elasticity/resilience, cohesiveness, surface smoothness, suppression of waviness)",[6],superior
"CCCCC/C=C\C/C=C\CCCCCCCC(=O)OCC(N)(CO)CO [Compound B31, 2-amino-2-hydroxymethyl-1,3-propanediol linoleate]",Adherability to the healthy hair,[1],higher adherability
same,"Sensory evaluation on healthy hair (flexibility, finger-combing, texture, elasticity/resilience, volume, cohesiveness, moist feeling, smoothness, non-stickiness, gloss)",[5],superior
same,"Sensory evaluation on damaged hair (elasticity/resilience, cohesiveness, surface smoothness, suppression of waviness)",[6],superior
same,Water evaporation inhibition rate,"[3]; sample on filter paper over vial of water, 40° C., 25% RH",48.1%
"CC(C)CCCCCCCCCCCCCCC(=O)OCC(N)(CO)CO [Compound B32, 2-amino-2-hydroxymethyl-1,3-propanediol isostearate]",Adherability to the healthy hair,[1],higher adherability
same,"Sensory evaluation on healthy hair (flexibility, finger-combing, texture, elasticity/resilience, volume, cohesiveness, moist feeling, smoothness, non-stickiness, gloss)",[5],superior
same,"Sensory evaluation on damaged hair (elasticity/resilience, cohesiveness, surface smoothness, suppression of waviness)",[6],superior
"CCCCCCCC/C=C\CCCCCCCC(=O)OCC(C)(N)CO (centres unmarked) [Compound B33, 2-amino-2-methyl-1,3-propanediol oleate]",Adherability to the healthy hair,[1],higher adherability
same,"Sensory evaluation on healthy hair (flexibility, finger-combing, texture, elasticity/resilience, volume, cohesiveness, moist feeling, smoothness, non-stickiness, gloss)",[5],superior
same,"Sensory evaluation on damaged hair (elasticity/resilience, cohesiveness, surface smoothness, suppression of waviness)",[6],superior
"CCCCC/C=C\C/C=C\CCCCCCCC(=O)OCC(C)(N)CO (centres unmarked) [Compound B34, 2-amino-2-methyl-1,3-propanediol linoleate]",Adherability to the healthy hair,[1],higher adherability
same,"Sensory evaluation on healthy hair (flexibility, finger-combing, texture, elasticity/resilience, volume, cohesiveness, moist feeling, smoothness, non-stickiness, gloss)",[5],superior
same,"Sensory evaluation on damaged hair (elasticity/resilience, cohesiveness, surface smoothness, suppression of waviness)",[6],superior
"CC(C)CCCCCCCCCCCCCCC(=O)OCC(C)(N)CO (centres unmarked) [Compound B35, 2-amino-2-methyl-1,3-propanediol isostearate]",Adherability to the healthy hair,[1],higher adherability
same,"Sensory evaluation on healthy hair (flexibility, finger-combing, texture, elasticity/resilience, volume, cohesiveness, moist feeling, smoothness, non-stickiness, gloss)",[5],superior
same,"Sensory evaluation on damaged hair (elasticity/resilience, cohesiveness, surface smoothness, suppression of waviness)",[6],superior
"CC(O)C(=O)[O-].[K+] (centres unmarked) [Compound C97, potassium lactate]",Compound concentration,[7]; Tape stripping layer 1,0.020 ml/L
same,Compound concentration,[7]; Tape stripping layer 2,0.017 ml/L
same,Compound concentration,[7]; Tape stripping layer 3,0.016 ml/L
same,Compound concentration,[7]; Tape stripping layer 4,0.009 ml/L
same,Compound concentration,[7]; Tape stripping layer 5,0.008 ml/L
same,Compound concentration,[7]; Tape stripping layer 6,0.006 ml/L
same,Compound concentration,[7]; Tape stripping layer 7,0.006 ml/L
same,Compound concentration,[7]; Tape stripping layer 8,0.006 ml/L
"O=C1O[C@H]([C@@H](O)CO)C(O)=C1O [Compound C98, ascorbic acid]",Appearance (Visual evaluation) After 7 days 50° C.,[8],x
same,Appearance (Visual evaluation) After 7 days Room temperature,[8],x
same,Appearance (Visual evaluation) Immediately after preparatiom,[8],⊚
"O=C1O[C@H]([C@@H](O)CO)C(O)=C1O[C@H]1O[C@H](CO)[C@@H](O)[C@H](O)[C@H]1O [Compound C99, ascorbic acid glucoside]",Appearance (Visual evaluation) After 7 days 50° C.,[8],Δ~x
same,Appearance (Visual evaluation) After 7 days Room temperature,[8],○
same,Appearance (Visual evaluation) Immediately after preparatiom,[8],⊚
"O=C1O[C@H]([C@@H](O)CO)C([O-])=C1OP(=O)([O-])[O-].[Na+].[Na+].[Na+] [Compound C100, sodium ascorbyl phosphate]",Appearance (Visual evaluation) After 7 days 50° C.,[8],Δ~x
same,Appearance (Visual evaluation) After 7 days Room temperature,[8],○~Δ
same,Appearance (Visual evaluation) Immediately after preparatiom,[8],⊚

# — patent US20250090437A1, “COSMETIC COMPOUNDING AGENT, COSMETIC AND PRODUCTION METHOD THEREOF” (MIYOSHI OIL & FAT CO., LTD., priority 2019, published 2025)
